These are literature values, as cited in patent publication US20230310471A1, “METHODS, DEVICES, AND SYSTEMS FOR TREATING LENS PROTEIN AGGREGATION DISEASES” (priority 2022, published 2023).

This data set deals with vimentin. Conditions: background statement, no experimental details printed.

For `O=S(=O)(F)Cc1ccccc1` [PMSF, phenylmethylsulfonyl fluoride], the vimentin degradation entry is reported as “decrease vimentin degradation”.
Take `CC(=O)N[C@@H](CC(C)C)C(=O)N[C@@H](CC(C)C)C(=O)N[C@H](C=O)CCCNC(=N)N` [leupeptin]: the vimentin degradation result is “decrease vimentin degradation”.
